According to the NIST ThermoML archive (doi:10.1021/acs.jced.5b00662):
“And” between values parts separate entries of the source, which are not always exact repeats. Equal values may be shown once.

Assays:
[1] = refractive index (Na D-line) (dimensionless); details: 101.33 kPa, Liquid, Standard Abbe refractometry
[2] = 101.33 kPa, Liquid; for speed of sound: Sing-around technique in a fixed-path interferometer; for mass density: Vibrating tube method; for viscosity: Concentric cylinders viscometry
[3] = xn = mol fraction of the nth substance listed; details: 100 kPa, Liquid; for speed of sound: Sing-around technique in a fixed-path interferometer; for mass density: Vibrating tube method

OCCO [1,2-ethanediol]
Details | mass density, [2] | refractive index, [1] | speed of sound, [2] [m/s] | viscosity, [2] [mPa·s]
283.15 K | 1120.2 kg/m3 | 1.43461 | 1689.9 | –
288.15 K | 1118.2 kg/m3 | 1.43312 | 1678.3 | 26.8
293.15 K | 1114.6 kg/m3 and 1113.3 kg/m3 | 1.43167 | 1666.5 | 21.2
298.15 K | 1111.1 kg/m3 | 1.43 | 1654.7 | 17.13
303.15 K | 1106.3 kg/m3 and 1107.6 kg/m3 | 1.42855 | 1642.9 | 14
308.15 K | 1104.1 kg/m3 | – | 1631.1 | 11.58
313.15 K | 1099.2 kg/m3 and 1100.5 kg/m3 | 1.42562 | 1619.3 | 9.627
318.15 K | 1097 kg/m3 | – | – | 8.182
323.15 K | 1092.1 kg/m3 and 1093.4 kg/m3 | 1.4226 | 1595.5 | 6.98
328.15 K | 1089.8 kg/m3 | – | – | 6.007
333.15 K | 1084.8 kg/m3 and 1086.2 kg/m3 | 1.41955 | 1571.5 | 5.197
338.15 K | 1082.6 kg/m3 | – | – | 4.555
343.15 K | 1078.9 kg/m3 and 1077.5 kg/m3 | 1.41655 | 1547.4 | 4.01
348.15 K | 1075.2 kg/m3 | – | – | 3.552
353.15 K | 1071.5 kg/m3 | 1.41351 | – | 3.161
358.15 K | 1067.8 kg/m3 | – | – | 2.835
363.15 K | 1064 kg/m3 | – | – | 2.552
368.15 K | 1060.2 kg/m3 | – | – | 2.306
373.15 K | 1056.4 kg/m3 | – | – | 2.102

OCCO [1,2-ethanediol] + O
[3]
Details | mass density, x1 = 0.9886 [kg/m3] | mass density, x1 = 0.9943 [kg/m3] | mass density, x1 = 0.9959 [kg/m3] | speed of sound, x1 = 0.9886 [m/s] | speed of sound, x1 = 0.9943 [m/s] | speed of sound, x1 = 0.9959 [m/s]
283.15 K | 1119.9 | 1120.07 | 1120.11 | 1690.2 | 1689 | 1690.6
288.15 K | 1116.43 | – | – | 1678.4 | 1678.1 | 1678.6
293.15 K | 1112.94 | 1113.11 | 1113.15 | 1666.6 | 1666.3 | 1666.6
298.15 K | 1109.46 | – | – | 1654.7 | 1654.8 | 1654.6
303.15 K | 1105.95 | 1106.11 | 1106.15 | 1643 | 1643 | 1642.7
308.15 K | 1102.43 | – | – | 1631.2 | 1631.3 | 1630.9
313.15 K | 1098.89 | 1099.05 | 1099.1 | 1619.5 | 1619.4 | 1619.1
323.15 K | 1091.75 | 1091.9 | 1091.95 | 1595.7 | 1595.5 | 1595.2
333.15 K | 1084.51 | 1084.67 | 1084.72 | 1571.7 | 1571.5 | 1571.2
343.15 K | 1077.16 | 1077.33 | 1077.37 | 1547.6 | 1547.4 | 1547.1

COCCOCCOCCOCCOC [2,5,8,11,14-pentaoxapentadecane]
Details | mass density, [2] | refractive index, [1] | speed of sound, [2] [m/s] | viscosity, [2] [mPa·s]
283.15 K | 1020.7 kg/m3 | 1.43599 | 1439.7 | –
288.15 K | 1017 kg/m3 and 1016.1 kg/m3 | 1.43414 | 1420.3 | 4.337
293.15 K | 1012.3 kg/m3 and 1011.5 kg/m3 | 1.43196 | 1401 | 3.846
298.15 K | 1006.8 kg/m3 and 1007.6 kg/m3 | 1.42992 | 1382 | 3.335
303.15 K | 1002.2 kg/m3 and 1003.1 kg/m3 | 1.42777 | 1363.1 | 2.967
308.15 K | 997.6 kg/m3 and 998.8 kg/m3 | – | 1344.3 | 2.66
313.15 K | 993 kg/m3 and 994.1 kg/m3 | 1.42373 | 1325.6 | 2.389
318.15 K | 989.5 kg/m3 | – | – | 2.183
323.15 K | 983.7 kg/m3 and 984.9 kg/m3 | 1.41973 | 1289.1 | 1.995
328.15 K | 980.2 kg/m3 | – | – | 1.832
333.15 K | 974.5 kg/m3 and 975.6 kg/m3 | 1.41578 | 1253.4 | 1.677
338.15 K | 971 kg/m3 | – | – | 1.566
343.15 K | 966.5 kg/m3 and 965.3 kg/m3 | 1.41174 | 1218.5 | 1.456
348.15 K | 961.9 kg/m3 | – | – | 1.358
353.15 K | 957.3 kg/m3 | 1.40773 | – | 1.25
358.15 K | 952.7 kg/m3 | – | – | 1.188
363.15 K | 948.1 kg/m3 | – | – | 1.115
368.15 K | 943.5 kg/m3 | – | – | 1.047
373.15 K | 938.9 kg/m3 | – | – | 0.978
